Legend:
calf thymus histone H4 = target: T1, calf thymus histone H4 (Bos taurus, UniProt P62803); assay: Cleavage of purified histone H4 by APC (SDS-PAGE); assay type: biochemical; conditions: 37° C.
T1 construct: Purified calf thymus histone H3 (top panel) or histone H4 (bottom panel); purchased Roche; host or cells: calf thymus tissue
Experimental: 0.1 mg/ml histone H4 was incubated with 20 μg/ml human APC in PBS containing 1 mM CaCl2 and MgCl2 at 37° C. for 60 min. Sample was subjected to SDS-PAGE and GelCode Blue (PIERCE) staining or sent to matrix-assisted laser desorption ionization-time of flight facility at the University of Oklahoma Health Science Center for molecular weight determination.

calf thymus histone H3 = assay: Cleavage of purified histone H3 by APC (SDS-PAGE); assay type: biochemical; conditions: 100 μg/ml histone H3, indicated concentrations of human APC, 1 hr, 37° C.; FIG. 13C
Experimental: (FIG. 13C) Purified calf thymus histone H3 (top panel) or histone H4 (bottom panel) (100 μg/ml) was incubated in Opti-MEM medium with the indicated concentrations of human APC for 1 hr at 37° C. Samples were then subjected to SDS-PAGE and coomassie blue staining.

IL-6 = IL-6 production from endothelium (ELISA); assay type: cell-based, human; conditions: FIG. 8
Experimental: (§1) FIG. 8—Histones induce IL-6 production from endothelium. EA.hy926 cells were stimulated with histone (0.1 mg/ml) or histone H3, histone H4 (50 μg/ml) for 24 hr at 37° C. in the absence or presence of APC (6 μg/ml), Anti-TLR2, Anti-TLR4 (10 μg/ml). Conditioned medium was measured for IL-6 production by IL-6 ELISA kit.

IL-8 = IL-8 production from endothelium (ELISA); assay type: cell-based, human; conditions: FIG. 9
Experimental: as §1, with “FIG. 9—Histones” for “FIG. 8—Histones”, “induce IL-8” for “induce IL-6”, “for IL-8” for “for IL-6”

[1] = system: baboons challenged with a lethal dose of E. coli; assay: Baboon model of sepsis, lethal dose of E. coli with or without infused APC; assay type: in vivo
Experimental: Six to 8 week male C57BL/6 mice (Jackson Lab) were used according to an animal protocol approved by Institutional Animal Care and Use Committees of the Oklahoma Medical Research Foundation. Baboon experiments were performed as previously described^5.
To test whether extracellular histones may be involved in the pathogenesis of diseases and if APC can cleave these histones in vivo, the inventors examined frozen archival plasma samples from a non-human primate model of sepsis in which baboons were challenged with a lethal dose of E. coli (Taylor et al., 1987). […] The inventors measured extracellular histones in the plasma from animals challenged with the lethal dose of E. coli either in the absence or presence of infused APC. Intact histone H3 was detected by Western blot in the plasma of the two baboons challenged with the lethal dose of E. coli and reached about 15 μg/ml 8 hours post-challenge (FIG. 14E). The inventors were unable to measure other histones in the same way because those anti-histone antibodies were not adequately sensitive. The increase in histone H3 accompanied the onset of acute renal failure as indicated by a high serum creatinine level, 2.65+/−0.05 mg/dL (normal range: 0.7-1.4 mg/dL) 8 hours post-challenge. […] APC co-infusion protected renal function as indicated by the normal serum creatinine level, 1.15+/−0.15 mg/dL at 8 hours post-challenge. […]

mice = assay: Intravenous histone injection lethality in mice; assay type: in vivo, mouse; conditions: co-injection of 5 mg APC/kg with 75 mg/kg histones, n=5
Experimental: To test the toxic effect of histones in vivo, the inventors injected 75 mg/kg of histones intravenously into mice. […] The calculated histone H3 concentration in the circulation of mice injected with the lethal dose of histones is about 5 times higher than the histone H3 level detected in the baboon plasma 8 hr post challenge with E. coli. […] The ratio of APC to histone H3 used to rescue the mice in vivo is similar to the ratio of APC to histone H3 used in endothelial cytoprotection experiment in vitro.

[2] = system: baboons challenged with a lethal dose of E. coli; conditions: infusion of APC (Taylor et al., 1987); cited from earlier work
[3] = severe sepsis; decreased from about 31%; cited from earlier work
[4] = APC 6 μg/ml, Anti-TLR2, Anti-TLR4 10 μg/ml, 24 hr
[5] = stimulation of EA.hy926 24 hr, serum-free, histones 0.1 mg/ml, histone H3 or H4 50 μg/ml

Row | Substance | cleavage of purified histone H4 (calf thymus histone H4; 100 μg/ml histone H4, indicated concentrations of human APC, 1 hr, FIG. 13C) | cleavage of purified histone H4 (calf thymus histone H4; 0.1 mg/ml histone H4, 20 μg/ml human APC, 60 min, 4-7 KD fragments, FIG. 4B) | cleavage of purified histone H3 (calf thymus histone H3) | inhibition of histone-induced IL-6 production (IL-6; [4]) | inhibition of histone-induced IL-8 production (IL-8; [4]) | serum creatinine level ([1]; 8 hours post-challenge, APC co-infusion, normal range 0.7-1.4 mg/dL, 2.65+/−0.05 without APC) [mg/dL] | cleavage of extracellular histone H3 in plasma (Western blot) ([1]; two animals challenged with a lethal dose of E. coli and administered APC, FIG. 14E) | rescue from lethal dose of histones (mice) | survival of baboons [2] | mortality [3] | IL-6 production (IL-6; [5]) | IL-8 production (IL-8; [5])
1 | APC: Human recombinant APC (Xigris) purchased from Eli Lilly; drotrecogin alfa (activated protein C) | cleaved histone H3 and H4 in a dose dependent fashion | also cleaved by APC | cleaved histone H3 and H4 in a dose dependent fashion | completely inhibits histone effect on IL-6 and IL-8 production | completely inhibits histone effect on IL-6 and IL-8 production | 1.15 ± 0.15 | can cleave extracellular histones in vivo | rescued all of the mice | rescued these animals | about 25% |  | 
2 | Pam3CSK4 |  |  |  |  |  |  |  |  |  |  | have no effect | have no effect
